Paper PMC8704606, “The Artemiside-Artemisox-Artemisone-M1 Tetrad: Efficacies against Blood Stage P. falciparum Parasites, DMPK Properties, and the Case for Artemiside” (Pharmaceutics, 2021)
Where two headings read alike, the source gives them in different places.

Key:
[1] = test system: asexual blood stages of Pf W2 (drug resistant); set-up: method as in PMID 29866868, PMID 31998692; settings: cited from earlier work
[2] = test system: asexual blood stages of Pf NF54 (drug sensitive); set-up: method as in PMID 29866868, PMID 31998692; settings: asexual blood stage Pf NF54, CQ sensitive; SYBR Green I; ± SEM; cited from earlier work
[3] = Pharmacokinetics and metabolism after iv and po administration; type: in vivo; settings: for half-life: mean ± SD, read-out: t½ (converted); for MRT last: read-out: MRT0-last; for AUC(0-t): up to 7 h
Method: The plasma concentration-time profiles of the parent compounds and metabolites after administration iv and po to male C57/BL6 mice are presented in Figure 2, Figure 3 and Figure 4. Artemiside was quantifiable up to 24 h in all mice dosed iv and up to 7 h po (lower limit of quantitation LLOQ = 1.6 ng/mL or 0.004 μM) (Figure 2). […] For both artemiside and artemisox, the metabolite artemisone was quantifiable up to 3 h in both the po and iv groups (Figure 2 and Figure 3). Thereby it is confirmed that artemiside is rapidly converted via artemisox into artemisone. Artemisone itself was quantifiable up to three hours post dose (Figure 4). The mean circulating concentrations for the compounds and their metabolites are presented in Table S3a–f in the Supplementary Material 1. The metabolite M1 was also detected upon administration of artemiside, artemisox, and artemisone, but it was not quantified here; chromatograms indicating the presence of M1 are illustrated in Figure S3a–c in the Supplementary Material 1. In addition, the plasma concentration-time curves for artemiside and its metabolites artemisone and M1 following iv and po dosing in the same murine model are presented and discussed in detail elsewhere (cf. Figure 4 in reference).
All work was conducted with prior approval of the animal ethics committee of the University of Cape Town in accordance with the South African National Standards for the Care and Use of Animals for Scientific Purposes and guidelines from the South African Department of Health. The requirements and methods for the pharmacokinetics in vivo involving po and iv drug administration, sample extraction, analyses of samples by LC-MS/MS, and data analyses are described elsewhere. For the animal experiments and formulations, the compounds were dissolved in a 10:60:30 mixture of N,N-dimethylacetamide-polypropylene glycol-polyethylene glycol for intravenous dosing (iv) at 5 mg/kg. For the oral dose (po), compounds were individually dosed as a suspension in 0.5% (w/v) hydroxypropylmethylcellulose in water with 0.2% Tween80 at 50 mg/kg to male C57/BL6 mice (n = 3 for each group). For PK sampling, blood samples were collected at predetermined times (0.08, 0.25, 0.5, 1, 3, 5, 7, and 24 h) for both po and iv dosing via tail bleeding into heparinized tubes, centrifuged, and the plasma samples were stored at −80 °C until extraction. For preparation of samples, the frozen plasma samples were thawed and 15 μL was extracted by liquid–liquid extraction using a universal buffer (pH8) containing 10 ng/mL of the internal standard and ethyl acetate, and the extract was vortexed and centrifuged. Calibration standards and quality controls were extracted following the same procedure. Supernatants were dried down, reconstituted, and injected onto the column for LC-MS/MS analysis using an AB SCIEX 5500 QTRAP instrument coupled to an Agilent 1260 HPLC detection system as previously described.

[4] = test system: P. berghei ANKA strain; settings: cited from earlier work
[5] = test system: late-stage (LG) Pf NF54 gametocytes; set-up: method as in PMID 29866868; settings: late-stage gametocytes >90% stages IV-V; dose responses obtained at 72 h; ± SEM; cited from earlier work
[6] = Cytotoxicity (LDH assay) against HepG2 cells; type: cell-based; settings: human, HepG2 cells (hepatocellular carcinoma)
Method: Cytotoxicity against mammalian hepatocellular carcinoma cells (HepG2 cells) was determined using the lactate dehydrogenase assay (LDH, Biovision Inc., Milpitas, CA, USA). […] Compound working solutions were prepared from 10 mM stock solutions (100% DMSO) in complete DMEM to a final DMSO (Sigma-Aldrich) conc. of <0.1% (vol/vol). […] Data analysis was performed using GraphPad Prism (version 6) software.

[7] = test system: Chinese hamster ovary (CHO) cells; set-up: method as in PMID 29866868, PMID 31998692; settings: other cell lines including CHO cells; read-out: EC50 cytotoxicity; cited from earlier work
[8] = test system: asexual blood stages of Pf K1 (drug resistant); set-up: method as in PMID 29866868, PMID 31998692; settings: cited from earlier work
[9] = male, C57/BL6, mouse, plasma, iv 5 mg/kg, parent drug
[10] = male, C57/BL6, mouse, plasma, po 50 mg/kg, parent drug

SMILES: C[C@H]1[C@H](N2CCSCC2)O[C@@H]2O[C@@]3(C)CC[C@H]4[C@H](C)CC[C@@H]1[C@@]24OO3 [Artemiside 5, Artemiside]
- IC50 ([1]; asexual blood stage Pf W2, multidrug resistant, SYBR Green I, ± SEM): 1.75 ± 0.27 nM
- RI = IC50 W2/IC50 NF54 [1]: 1.58
- IC50 [2]: 1.11 ± 0.17 nM
- Mean po circulating concentration ([3]; 24 h after po 50 mg/kg artemiside 5): blq
- quantifiable/detectable in plasma up to ([3]; iv group, parent drug, LLOQ 1.6 ng/mL or 0.004 μM for artemiside): up to 24 h
- concentration at 0.08 h ([3]; male, C57/BL6, mouse, plasma, iv, 5 mg/kg, 0.08 h after iv 5 mg/kg artemiside 5, read-out: Mean iv circulating concentration): 6240 nM
- concentration at 0.25 h ([3]; male, C57/BL6, mouse, plasma, iv, 5 mg/kg, 0.25 h after iv 5 mg/kg artemiside 5, read-out: Mean iv circulating concentration): 3560 nM
- concentration at 0.5 h ([3]; male, C57/BL6, mouse, plasma, iv, 5 mg/kg, 0.5 h after iv 5 mg/kg artemiside 5, read-out: Mean iv circulating concentration): 1710 nM
- concentration at 1 h ([3]; male, C57/BL6, mouse, plasma, iv, 5 mg/kg, 1 h after iv 5 mg/kg artemiside 5, read-out: Mean iv circulating concentration): 930 nM
- concentration at 3 h ([3]; male, C57/BL6, mouse, plasma, iv, 5 mg/kg, 3 h after iv 5 mg/kg artemiside 5, read-out: Mean iv circulating concentration): 180 nM
- concentration at 5 h ([3]; male, C57/BL6, mouse, plasma, iv, 5 mg/kg, 5 h after iv 5 mg/kg artemiside 5, read-out: Mean iv circulating concentration): 86 nM
- concentration at 7 h ([3]; male, C57/BL6, mouse, plasma, iv, 5 mg/kg, 7 h after iv 5 mg/kg artemiside 5, read-out: Mean iv circulating concentration): 37 nM
- concentration at 24 h ([3]; male, C57/BL6, mouse, plasma, iv, 5 mg/kg, 24 h after iv 5 mg/kg artemiside 5, read-out: Mean iv circulating concentration): 8 nM
- half-life ([3]; male, C57/BL6, mouse, plasma, iv, 5 mg/kg, iv 5 mg/kg, parent drug): 1.2 ± 0.1 h
- concentration at 0.08 h ([3]; male, C57/BL6, mouse, plasma, po, 50 mg/kg, 0.08 h after po 50 mg/kg artemiside 5, read-out: Mean po circulating concentration): 85 nM
- concentration at 0.25 h ([3]; male, C57/BL6, mouse, plasma, po, 50 mg/kg, 0.25 h after po 50 mg/kg artemiside 5, read-out: Mean po circulating concentration): 109 nM
- concentration at 0.5 h ([3]; male, C57/BL6, mouse, plasma, po, 50 mg/kg, 0.5 h after po 50 mg/kg artemiside 5, read-out: Mean po circulating concentration): 135 nM
- concentration at 1 h ([3]; male, C57/BL6, mouse, plasma, po, 50 mg/kg, 1 h after po 50 mg/kg artemiside 5, read-out: Mean po circulating concentration): 119 nM
- concentration at 3 h ([3]; male, C57/BL6, mouse, plasma, po, 50 mg/kg, 3 h after po 50 mg/kg artemiside 5, read-out: Mean po circulating concentration): 58 nM
- concentration at 5 h ([3]; male, C57/BL6, mouse, plasma, po, 50 mg/kg, 5 h after po 50 mg/kg artemiside 5, read-out: Mean po circulating concentration): 12 nM
- concentration at 7 h ([3]; male, C57/BL6, mouse, plasma, po, 50 mg/kg, 7 h after po 50 mg/kg artemiside 5, read-out: Mean po circulating concentration): 6 nM
- half-life ([3]; male, C57/BL6, mouse, plasma, po, 50 mg/kg, po 50 mg/kg, parent drug): 1.4 ± 0.04 h
- clearance ([3]; male, C57/BL6, mouse, plasma, iv 5 mg/kg): 58.3 mL/min/kg
- AUC(0-inf) [3, 9]: 3.9 ± 0.4 µM·h
- MRT last ([3]; male, C57/BL6, mouse, plasma, iv 5 mg/kg, parent drug, 0-last up to 7 h): 1 ± 0.1 h
- AUC(0-t) [3, 9]: 3.8 ± 0.5 µM·h
- Vd ([3]; male, C57/BL6, mouse, plasma, iv 5 mg/kg, read-out: Vss): 4.1 ± 0.5 L/kg
- Cmax [3, 10]: 130 ± 10 nM
- MRT last [3, 10]: 1.9 ± 0.1 h
- AUC(0-t) [3, 10]: 0.36 ± 0.06 µM·h
- MAT (mean absorption time = MRTpo–MRTiv) ([3]; po 50 mg/kg): 0.92 ± 0.20 h
- quantifiable/detectable in plasma up to ([3]; po group, parent drug): up to 7 h
- outcome of combination with piperaquine ([4]; P. berghei ANKA infected mice, ip 0.66 mg/kg with piperaquine 10 mg/kg): survival of all mice, with no recrudescence taking place
- outcome in cerebral malaria model ([4]; mice infected with P. berghei ANKA, artemiside 3 mg/kg/d ip for 4 days (days 2–5 post-infection)): complete cure
- IC50 [5]: 1.5 ± 0.5 nM
- IC50 at 24 h [6]: > 50000 nM
- EC50 [7]: > 241000 nM
- IC50 ([8]; asexual blood stage Pf K1, multidrug resistant, SYBR Green I, ± SEM): 1.6 ± 0.4 nM
- RI (resistance index) = IC50 K1/IC50 NF54 [8]: 1.47
